{"source": "patent US20240124427A1", "about": "“HYDROXYHETEROCYCLOALKANE-CARBAMOYL DERIVATIVES” (Idorsia Pharmaceuticals Ltd, priority 2021, published 2024)", "data": [{"target": "human Gal-3 (hGal-3) (Homo sapiens (Human), UniProt P17931)", "sequence (P17931 whole entry)": "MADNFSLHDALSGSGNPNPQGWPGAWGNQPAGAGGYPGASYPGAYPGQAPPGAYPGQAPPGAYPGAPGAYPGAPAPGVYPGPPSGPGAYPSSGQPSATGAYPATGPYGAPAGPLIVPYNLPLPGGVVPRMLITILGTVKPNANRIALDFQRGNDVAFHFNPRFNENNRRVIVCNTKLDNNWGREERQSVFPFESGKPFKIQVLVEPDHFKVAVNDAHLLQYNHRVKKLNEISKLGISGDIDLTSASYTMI", "experiment": "Competitive binding assay: biotinylated hGal-3 binding to microplate-adsorbed asialofetuin (ASF)", "details": "Activity on hGal-3; mean values of several measurements; mixture of diastereomers measured where not separated", "how_it_was_run": "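Spectrophotometric read-out using streptavidin-peroxidase and ABTS quantifies how much biotin-hGal-3 remains bound to microplate asialofetuin after 3 h at 4 °C with compound present. Values are means of repeated IC50 determinations.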", "units": {"IC50": "nM"}, "values": [{"smiles": "CO[C@@H]1[C@@H](n2cc(-c3cc(F)c(F)c(F)c3)nn2)[C@@H](O)[C@@H](CO)O[C@H]1C(=O)N(c1cc(C)cc(Br)c1)[C@H]1CN(C(C)=O)C[C@@H]1O", "note": "[Example 72, (2R,3R,4S,5R,6R)-N-((3S,4S)-1-acetyl-4-hydroxypyrrolidin-3-yl)-N-(3-bromo-5-methylphenyl)-5-hydroxy-6-(hydroxymethyl)-3-methoxy-4-(4-(3,4,5-trifluorophenyl)-1H-1,2,3-triazol-1-yl)tetrahydro-2H-pyran-2-carboxamide]", "IC50": 26}, {"smiles": "CO[C@@H]1[C@@H](n2cc(-c3ccc(Cl)c(Cl)c3)nn2)[C@@H](O)[C@@H](CO)O[C@H]1C(=O)N(c1cc(Br)cc(C#N)c1)[C@H]1COC[C@@H]1O", "note": "[Example 28, (2R,3R,4S,5R,6R)-N-(3-bromo-5-cyanophenyl)-4-(4-(3,4-dichlorophenyl)-1H-1,2,3-triazol-1-yl)-5-hydroxy-6-(hydroxymethyl)-N-((3S,4R)-4-hydroxytetrahydrofuran-3-yl)-3-methoxytetrahydro-2H-pyran-2-carboxamide]", "IC50": 115}, {"smiles": "CO[C@@H]1[C@@H](n2cc(-c3cc(F)c(F)c(F)c3)nn2)[C@@H](O)[C@@H](CO)O[C@H]1C(=O)N(c1cc(C)cc(Br)c1)[C@@H]1CCOC[C@H]1O", "note": "[Example 104, (2R,3R,4S,5R,6R)-N-(3-bromo-5-methylphenyl)-5-hydroxy-6-(hydroxymethyl)-N-((3S,4R)-3-hydroxytetrahydro-2H-pyran-4-yl)-3-methoxy-4-(4-(3,4,5-trifluorophenyl)-1H-1,2,3-triazol-1-yl)tetrahydro-2H-pyran-2-carboxamide]", "IC50": 256}, {"smiles": "CO[C@@H]1[C@@H](n2cc(-c3ccc(Br)c(F)c3F)nn2)[C@@H](O)[C@@H](CO)O[C@H]1C(=O)N(c1cc(Cl)cc(Cl)c1)[C@@H]1CN(C(C)=O)C[C@H]1O", "note": "[Example 80, (2R,3R,4S,5R,6R)-N-((3R,4R)-1-acetyl-4-hydroxypyrrolidin-3-yl)-4-(4-(4-bromo-2,3-difluorophenyl)-1H-1,2,3-triazol-1-yl)-N-(3,5-dichlorophenyl)-5-hydroxy-6-(hydroxymethyl)-3-methoxytetrahydro-2H-pyran-2-carboxamide]", "IC50": 31}, {"smiles": "CO[C@@H]1[C@@H](n2cc(-c3ccc(Br)c(F)c3F)nn2)[C@@H](O)[C@@H](CO)O[C@H]1C(=O)N(c1cc(Cl)cc(Cl)c1)[C@@H]1COC[C@H]1O", "note": "[Example 41, (2R,3R,4S,5R,6R)-4-(4-(4-bromo-2,3-difluorophenyl)-1H-1,2,3-triazol-1-yl)-N-(3,5-dichlorophenyl)-5-hydroxy-6-(hydroxymethyl)-N-((3R,4S)-4-hydroxytetrahydrofuran-3-yl)-3-methoxytetrahydro-2H-pyran-2-carboxamide]", "IC50": 63}, {"smiles": "CO[C@@H]1[C@@H](n2cc(-c3cc(F)c(F)c(F)c3)nn2)[C@@H](O)[C@@H](CO)O[C@H]1C(=O)N(c1cc(Cl)cc(Cl)c1)[C@@H]1COCC[C@H]1O", "note": "[Example 107, (2R,3R,4S,5R,6R)-N-(3,5-dichlorophenyl)-5-hydroxy-6-(hydroxymethyl)-N-((3R,4R)-4-hydroxytetrahydro-2H-pyran-3-yl)-3-methoxy-4-(4-(3,4,5-trifluorophenyl)-1H-1,2,3-triazol-1-yl)tetrahydro-2H-pyran-2-carboxamide]", "IC50": 217}, {"smiles": "CO[C@@H]1[C@@H](n2cc(-c3cc(F)c(F)c(F)c3)nn2)[C@@H](O)[C@@H](CO)O[C@H]1C(=O)N(c1cc(Cl)cc(Cl)c1)[C@H]1CNC[C@@H]1O", "note": "[Example 59, (2R,3R,4S,5R,6R)-N-(3,5-dichlorophenyl)-5-hydroxy-6-(hydroxymethyl)-N-((3S,4S)-4-hydroxypyrrolidin-3-yl)-3-methoxy-4-(4-(3,4,5-trifluorophenyl)-1H-1,2,3-triazol-1-yl)tetrahydro-2H-pyran-2-carboxamide]", "IC50": 23}, {"smiles": "CO[C@@H]1[C@@H](n2cc(-c3ccc(C)c(F)c3F)nn2)[C@@H](O)[C@@H](CO)O[C@H]1C(=O)N(c1cc(Cl)cc(Cl)c1)[C@H]1CNC[C@@H]1O", "note": "[Example 63, (2R,3R,4S,5R,6R)-N-(3,5-dichlorophenyl)-4-(4-(2,3-difluoro-4-methylphenyl)-1H-1,2,3-triazol-1-yl)-5-hydroxy-6-(hydroxymethyl)-N-((3S,4S)-4-hydroxypyrrolidin-3-yl)-3-methoxytetrahydro-2H-pyran-2-carboxamide]", "IC50": 24}, {"smiles": "CO[C@@H]1[C@@H](n2cc(-c3cc(F)c(C)c(F)c3)nn2)[C@@H](O)[C@@H](CO)O[C@H]1C(=O)N(c1cc(Br)cc(Br)c1)[C@@H]1COC[C@H]1O", "note": "[Example 45, (2R,3R,4S,5R,6R)-N-(3,5-dibromophenyl)-4-(4-(3,5-difluoro-4-methylphenyl)-1H-1,2,3-triazol-1-yl)-5-hydroxy-6-(hydroxymethyl)-N-((3R,4S)-4-hydroxytetrahydrofuran-3-yl)-3-methoxytetrahydro-2H-pyran-2-carboxamide]", "IC50": 59}, {"smiles": "CO[C@@H]1[C@@H](n2cc(-c3ccc(C)c(F)c3F)nn2)[C@@H](O)[C@@H](CO)O[C@H]1C(=O)N(c1cc(C)cc(Br)c1)[C@@H]1CNC[C@H]1O", "note": "[Example 69, (2R,3R,4S,5R,6R)-N-(3-bromo-5-methylphenyl)-4-(4-(2,3-difluoro-4-methylphenyl)-1H-1,2,3-triazol-1-yl)-5-hydroxy-6-(hydroxymethyl)-N-((3R,4R)-4-hydroxypyrrolidin-3-yl)-3-methoxytetrahydro-2H-pyran-2-carboxamide]", "IC50": 38}, {"smiles": "CO[C@@H]1[C@@H](n2cc(-c3cc(F)c(Cl)c(F)c3)nn2)[C@@H](O)[C@@H](CO)O[C@H]1C(=O)N(c1cc(C)cc(Br)c1)[C@H]1COC[C@@H]1O", "note": "[Example 25, (2R,3R,4S,5R,6R)-N-(3-bromo-5-methylphenyl)-4-(4-(4-chloro-3,5-difluorophenyl)-1H-1,2,3-triazol-1-yl)-5-hydroxy-6-(hydroxymethyl)-N-((3S,4R)-4-hydroxytetrahydrofuran-3-yl)-3-methoxytetrahydro-2H-pyran-2-carboxamide]", "IC50": 31}, {"smiles": "CO[C@@H]1[C@@H](n2cc(-c3ccc(Cl)c(Cl)c3)nn2)[C@@H](O)[C@@H](CO)O[C@H]1C(=O)N(c1cc(Br)cc(Br)c1)[C@H]1COC[C@@H]1O", "note": "[Example 27, (2R,3R,4S,5R,6R)-N-(3,5-dibromophenyl)-4-(4-(3,4-dichlorophenyl)-1H-1,2,3-triazol-1-yl)-5-hydroxy-6-(hydroxymethyl)-N-((3S,4R)-4-hydroxytetrahydrofuran-3-yl)-3-methoxytetrahydro-2H-pyran-2-carboxamide]", "IC50": 89}, {"smiles": "CO[C@@H]1[C@@H](n2cc(-c3ccc(C)c(F)c3F)nn2)[C@@H](O)[C@@H](CO)O[C@H]1C(=O)N(c1cc(C)cc(Br)c1)[C@H]1CNC[C@@H]1O", "note": "[Example 64, (2R,3R,4S,5R,6R)-N-(3-bromo-5-methylphenyl)-4-(4-(2,3-difluoro-4-methylphenyl)-1H-1,2,3-triazol-1-yl)-5-hydroxy-6-(hydroxymethyl)-N-((3S,4S)-4-hydroxypyrrolidin-3-yl)-3-methoxytetrahydro-2H-pyran-2-carboxamide]", "IC50": 25}, {"smiles": "CO[C@@H]1[C@@H](n2cc(-c3ccc(Br)c(F)c3F)nn2)[C@@H](O)[C@@H](CO)O[C@H]1C(=O)N(c1cc(Br)cc(C#N)c1)[C@@H]1COC[C@H]1O", "note": "[Example 42, (2R,3R,4S,5R,6R)-4-(4-(4-bromo-2,3-difluorophenyl)-1H-1,2,3-triazol-1-yl)-N-(3-bromo-5-cyanophenyl)-5-hydroxy-6-(hydroxymethyl)-N-((3R,4S)-4-hydroxytetrahydrofuran-3-yl)-3-methoxytetrahydro-2H-pyran-2-carboxamide]", "IC50": 37}]}]}
